Reference: ChEMBL document CHEMBL1158884, “PSII inhibitory activity of resorcinolic lipids from Sorghum bicolor” (J Nat Prod, 2003)
The source made the active and inactive calls. The rule behind the calls is not given here.

Legend:
[1] = Inhibition of Photosystem 2 in spinach thylakoid membrane assessed as inhibition of photosynthetic oxygen evolution; type: cell membranes, Spinacia oleracea
Lactuca sativa [2] = test: Phytotoxicity against Lactuca sativa assessed as inhibition of seedlings germination at 1.0 mM after 4 days; type: functional, organism-based
Lactuca sativa [3] = test: Phytotoxicity against Lactuca sativa assessed as inhibition of seedlings germination at 3.33 mM after 4 days; type: functional, organism-based

Compound | IC50 [1] [µM] | Activity (Lactuca sativa [2]) | Activity (Lactuca sativa [3])
C=CC/C=C\C/C=C\CCCCCCCc1c(O)c(OC)cc(OC)c1O | 0.09 | Active | Active
CN(C)C(=O)Nc1ccc(Cl)c(Cl)c1 [DCMU] | 0.23 | – | –
C=CC/C=C\C/C=C\CCCCCCCc1c(O)c(OC)cc(OCC)c1O [E565] | 0.2 | – | –
C=CC/C=C\C/C=C\CCCCCCCC1=C(O)C(=O)C=C(OC)C1=O [SORGOLEONE] | 0.09 | – | Active
